Test [1] has as its target T1, TrkB (Rattus norvegicus, UniProt Q63604).
T1 construct: endogenous in cells; host or cells: primary rat cortical and hippocampal neurons
Briefly: Immunofluorescent staining with anti-phospho-TrkB Y816 in primary hippocampal neurons. The test is classed as cell-based. Conditions: 300 nM, 30 min. The procedure: Primary Rat Cortical and Hippocampal Neuron Cultures
Primary hippocampal neurons were seeded on poly-L-lysine coated coverslips in a 12-well plate. After 7 days in vitro, the neurons were treated with 100 ng/ml BDNF or variety of neurotransmitters and 7,8-dihydroxyflavone compound (500 nM) for 30 min, and then washed with PBS. Cells were fixed with 3% formaldehyde in PBS at room temperature for 15 min. The cells were then permeabilized and blocked by 0.4% Triton X-100 and 2% FBS in PBS at room temperature for 15 minutes, washed with PBS three times and treated with anti-MAP2 (1:200) and anti-phospho-TrkB antibodies (1:100). After staining with FITC- or Rhodamine-conjugated secondary antibody, the coverslips were mounted on slides. Fluorescent images were taken by OLYMPUS IX71 fluorescence microscope (Olympus; Center Valley, Pa.).
(§1) To explore whether monoamine neurotransmitters, including catecholamines (see, e.g., FIG. 1), could stimulate TrkB activation, hippocampal neurons were treated with 300 nM of catecholamines, serotonin, and melatonin for 30 min.

Test [2] addresses T1, TrkB. Briefly: TrkB activation in cortical neurons after pretreatment with antibodies, receptor antagonists, transporter inhibitors or EDTA (anti-p-TrkB-Y-816 immunoblot). The test is classed as cell-based.
From the text: (§2) Both antidepressants and exercise increase hippocampal BDNF mRNA expression through enhanced 5-HT and/or NE neurotransmission (Siuciak et al., Pharmacol. Biochem. Behav., 56:131-137, 1997; Dias et al., Neuropharmacology, 45:553-563, 2003; Ivy et al., Pharmacol. Biochem. Behav., 75:81-88, 2003; Garza et al., Pharmacol. Biochem. Behav., 77:209-220, 2004). If catecholamines activated TrkB signaling indirectly by promoting BDNF generation, then scavenging BDNF with its specific antibody would be expected to diminish catecholamines-mediated activation of TrkB. Cultured cortical neurons were pretreated with BDNF-IgG for 30 minutes followed by exposure to BDNF (10 ng/ml) or catecholamines (100 nM) for 15 minutes. […] It was then determined whether catecholamines could activate TrkB in neurons cultured from mice carrying a null mutation of BDNF.
To further investigate the specificity of catecholamines in inducing TrkB activation, cortical neurons were pretreated with control IgG or norepinephrine IgG, a rabbit polyclonal antibody for norepinephrine, followed by catecholamines.
(§3) It was then determined whether catecholamines could activate TrkB in neurons cultured from mice carrying a null mutation of NET.
(§4) The cell lysates were analyzed by immunoblotting with anti-p-TrkB-Y-816.
as §4
A group of primary cortical neurons were pretreated with 1 mM EDTA, and another group of primary cortical neurons were not pretreated. Both groups of primary cortical neurons were then treated with either Zn (100 μM) or a catecholamine (100 nM) for 15 minutes. The neuronal cell lysates were analyzed by immunoblotting with anti-p-TrkB-Y-816 antibody.

In test [3] the target is T1, TrkB. The test can be described thus: Screening of catecholamine derivatives for TrkB activation in primary cortical neurons (anti-p-TrkB-Y-816 immunoblot). The test is classed as cell-based. Conditions: 500 nM, 30 min. As to the method:
Catecholamines can directly bind to the kinase domain of the TrkB receptor and activate it. However, the catecholamines are not able to cross through the blood brain barrier. […] Cortical neurons (7 DIV cortical neurons from 18 day old Sprague Dawley rat embryos) were treated with 500 nM of the selected compound for 30 min and cell lysates were prepared. The cell lysates ([…]) were analyzed for TrkB activation by immunoblotting with anti-p-TrkB-Y-816 antibody.
Catecholamine derivatives as described herein, including Compound I-2, Compound I-5, Compound I-7, Compound I-8, Compound I-9, Compound I-10, Compound I-11, Compound I-14, Compound I-15, Compound I-17, Compound I-18, and isoproterenol, were screened for TrkB activation in primary cortical neurons. Cortical neurons (7 DIV cortical neurons from 18 day old Sprague Dawley rat embryos) were treated with 500 nM of the selected compound for 30 min and cell lysates were prepared. The cell lysates ([…]) were analyzed for TrkB activation by immunoblotting with anti-p-TrkB-Y-816 antibody.
On the technique in general: A western blot detects proteins with antibodies after separation by electrophoresis.

Test [4] has as its system TrkB. The test can be described thus: TrkB activation in mouse brain after administration of catecholamine derivatives (anti-p-TrkB-Y-816 immunoblot). The test is classed as in vivo. Conditions: 50 mg/kg orally (in saline), C57BL/6J mice. As to the method: To explore whether these compounds could stimulate TrkB in vivo, 50 mg/kg of Compound I-11, Compound I-8, and Compound I-2 (2-(methylamino)-3′,4′-dihydroxy-acetophenone) were each orally administered (in saline) to 2-month-old C57BL/6J mice. The mice were sacrificed at different time points and TrkB activation in the brains of the mice was monitored by immunoblotting with anti-p-TrkB-Y-816 antibody.
To determine the minimal required dosages for Compound I-11 and Compound I-8, different doses of the compounds were each orally administered to mice. The mice were sacrificed after 4 hours, and the brain lysates were analyzed by immunoblotting with anti-p-TrkB-Y-816 antibody.
To search for orally bioactive catecholamines, catecholamine derivatives described herein were screened using primary neuronal cultures. The in vitro active compounds, Compounds I-8 and I-11, were adminstered into two to three month old C57BL/6J mice orally, intraperitoneally, and in drinking water. For oral administration, the mice were administered 0 mg (control), 5 mg, 10 mg, 20 mg, or 50 mg of Compound I-8 or Compound I-11. After 4 hours, TrkB phosphorylation in mouse brain was monitored by analyzing the brain lysates using immunoblotting with anti-p-TrkB-Y-816 antibody. The ratios of p-TrK/total TrkB were quantified (FIG. 27A). For intraperitoneal administration, 50 mg/kg of Compound I-8 or Compound I-11 were intraperitoneally injected into the mice. The brain lysates were prepared at different times (0 hr, 1 hr, 2 hr, 4 hr, and 8 hr) and were analyzed by immunoblotting with anti-p-TrkB-Y-816 antibody (FIG. 27B). Compound I-8 and Compound I-11 were dissolved in drinking water and given to mice. After 24 h, the brain lysates were prepared and analyzed by immunoblotting with anti-p-TrkB-Y-816 antibody (FIG. 27C). […] Therefore, these compounds are useful in treating various neurological or neuropsychiatric diseases as described herein.

Test [5] has as its target T1, TrkB. Briefly: Immunoblotting of TrkB phosphorylation in primary cortical neurons treated with catecholamines. The test is classed as cell-based. Conditions: for TrkB activation (immunoblotting of neuronal lysates): primary neurons. As to the method: Primary cultured rat cortical neurons were prepared as follows. E17 rat pups were decapitated and cortex was extirpated, cross chopped and suspended by pipetting for separation in 5% fetal calf serum (FCS), 5% horse serum (HS) DMEM. The cell suspension was then centrifuged at 250×g for 5 min. This operation was repeated. Cells were seeded into polyethyleneimine-coated 10 cm^2 dishes and 12-well plates including coated-coverslips and incubated at 37° C. in 5% CO2/95% air. After 3 hours, the culture medium was changed to Neurobasal containing B-27 supplement (Invitrogen; Carlsbad, Calif.) and incubated for 4 days. For maintenance, half of the culture medium was changed to fresh Neurobasal/B27 in every 4 days. After 1 week, the dished cultured neurons were ready for use.
as §1

In test [6] the target is T2, TrkB (Mus musculus, UniProt P15209).
T2 construct: endogenous in cells; host or cells: primary cortical neurons from BDNF-null, TrkB +/- cross, TrkC knockout and NET -/- mice
T2 sequence (P15209 32-821): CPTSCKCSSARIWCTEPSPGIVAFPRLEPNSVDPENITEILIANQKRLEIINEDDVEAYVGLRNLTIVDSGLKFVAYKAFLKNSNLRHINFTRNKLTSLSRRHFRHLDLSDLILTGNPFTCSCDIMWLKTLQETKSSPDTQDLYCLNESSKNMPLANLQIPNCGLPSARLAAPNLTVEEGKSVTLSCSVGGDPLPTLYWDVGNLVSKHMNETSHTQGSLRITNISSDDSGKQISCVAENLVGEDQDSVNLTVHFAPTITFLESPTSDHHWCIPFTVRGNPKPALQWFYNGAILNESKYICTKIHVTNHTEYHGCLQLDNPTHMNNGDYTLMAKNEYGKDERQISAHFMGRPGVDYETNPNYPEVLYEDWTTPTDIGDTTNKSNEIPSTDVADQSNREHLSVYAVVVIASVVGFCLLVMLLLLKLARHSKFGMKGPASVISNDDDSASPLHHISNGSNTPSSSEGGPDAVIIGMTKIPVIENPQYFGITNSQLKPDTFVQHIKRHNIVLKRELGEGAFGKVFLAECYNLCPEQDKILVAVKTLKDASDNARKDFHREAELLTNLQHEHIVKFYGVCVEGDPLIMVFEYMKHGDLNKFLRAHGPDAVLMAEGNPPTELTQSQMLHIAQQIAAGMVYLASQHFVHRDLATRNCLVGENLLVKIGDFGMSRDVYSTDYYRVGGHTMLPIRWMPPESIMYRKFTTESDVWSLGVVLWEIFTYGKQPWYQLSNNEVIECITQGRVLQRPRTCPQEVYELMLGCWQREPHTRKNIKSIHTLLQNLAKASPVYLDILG
The test is classed as cell-based, mice. The note with it: compared to wild-type control neurons. As to the method: as §3

Test [7] has as its target T2, TrkB. The test can be described thus: TrkB activation in cortical neurons cultured from BDNF-null mice. The test is classed as cell-based. Conditions: 15 min.
From the text: as §2

The target in another test is T3, TrkB F616A (Mus musculus, UniProt P15209, F616A).
T3 construct: endogenous in cells; host or cells: primary cortical neurons from TrkB F616A knock-in mice
T3 sequence (P15209 32-821 F616A): as the sequence (P15209 32-821) above, with F585A counted along it
Briefly: TrkB phosphorylation in TrkB F616A or TrkA F592A cortical neurons pretreated with K252a or 1NMPP1. The test is classed as cell-based, mice. The note with it: TrkB F616A knock-in cortical neurons. As to the method:
(§5) TrkB F616A mice were pretreated with 1NMPP1 (50 μM) before L-DOPA or DOPS administration.
On day 7, the primary cortical neurons were pretreated with 100 nM K252a or 1NMPP1 for 30 min, followed by 500 nM ADPP and DDAP. Cell lysates were analyzed by Western blotting.

Test [8] has as its system TrkB. The test is classed as in vivo. Conditions: BDNF conditional knockout mice, compared to vehicle control.
Test [9] deals with T4, TrkB (Mus musculus, UniProt P15209, F616A).
T4 construct: from tissue; host or cells: mouse brain
T4 sequence (P15209 32-821 F616A): as the sequence (P15209 32-821) above, with F585A counted along it
The test is classed as in vivo. The note with it: L-DOPA 50 mg/kg, DOPS 100 mg/kg, 1NMPP1 50 μM. The procedure:
The DOPS concentration was 20 mg/ml, the vitamin C concentration was 2 mg/ml, and the benserazide concentration was 5 mg/ml. The vitamin C prevents oxidation of the DOPS, and the benserazide is a peripheral inhibitor of AADC and restricts the production of NE from DOPS to the brain. The compounds were added to a tube, and 20 μl of 10 M HCl was added to each ml of DOPS solution. The appropriate amount of water was added to the tube, and then HCl was added to achieve the desired volume. For example, to make 1 mL of a DOPS solution, 20 mg DOPS, 2 mg vitamin C, and 5 mg benserazide were added to a tube, followed by 980 μL of water and 20 μL of 10 M HCl. The solution was vortexed until all DOPS was dissolved. The DOPS solution was injected subcutaneously in a volume of 50 μl/g of mouse. The appropriate amount of DOPS solution was pipetted into a clean tube, followed by the amount of 10 M NaOH required to exactly neutralize the HCl. The solution was then shaken. The amount of 10 M NaOH is the weight of the mouse in microliters. For example, for a 20 g mouse, pipet 1 ml of the DOPS solution is pipetted into a tube and 20 μL of 10 M NaOH is added. For a 30 g mouse, 1.5 mL of the DOPS solution is pipetted into a tube and 30 μl of 10 M NaOH is added. Two to four month-old TrkBF616A mice were pretreated with 1NMPP1 in drinking water (50 μM) 1 day before L-DOPA (50 mg/kg) or DOPS (100 mg/kg) intraperitoneal injection. At times of 2 hours and 5 hours after drug administration, the L-DOPA or DOPS-treated mice were sacrificed, respectively. The brain lysates were prepared and analyzed by immunoblotting against anti-phospho-TrkB Y816 and TrkA Y794 antibodies.
as §5

Each structure is given as a SMILES string.

This is an account of results in US9266817B2, “Catecholamine derivatives for obesity and neurological disorders” (EMORY UNIVERSITY, priority 2009, dated 2016).

T1 sequence (Q63604 32-821): as the sequence (P15209 32-821) above, with T3M, S9T, A10T, V32I, R63K, S84G, M153T, L185I, S394T, S770N counted along it

Regarding `NCCc1c[nH]c2ccc(OS(=O)(=O)O)cc12` [Compound 5-HT-sulfate, 5-HT-sulfate], the “TrkB tyrosine phosphorylation (immunofluorescent staining)” value at TrkB [1] is reported as “had no effect”.

In the case of `c1ccc(CCCN2CCN(CCOC(c3ccccc3)c3ccccc3)CC2)cc1` [GBR12935], the “Effect of inhibitor on dopamine-mediated TrkB activation” value at TrkB [2] (cortical neurons) is reported as “significantly blocked”.

On to `CNCC(=O)c1ccc(O)c(O)c1` [Compound I-2, 2-(methylamino)-3′,4′-dihydroxy-acetophenone], for which the “TrkB activation in primary cortical neurons” value at TrkB [3] was “display activity”. Besides, the “TrkB activation in the brains of the mice” value with TrkB [4] is “failed to activate TrkB”.

With `CN[C@@H](C(N)=O)C(=O)c1ccc(O)c(O)c1` [Compound I-7], the “TrkB activation in primary cortical neurons” value at TrkB [3] was “display activity”.

For the compound `COc1ccc2[nH]cc(CCNC(C)=O)c2c1` [melatonin], the “TrkB tyrosine phosphorylation (immunofluorescent staining)” value on TrkB [1] is listed as “did not”. Moreover, the “TrkB activation (immunoblotting of neuronal lysates)” value at TrkB [5] is reported as “not activated”.

For `O=C(O)Cc1c[nH]c2ccc(O)cc12` [Compound 5-HIAA, 5-hydroxyindoleacetic acid], the “TrkB tyrosine phosphorylation (immunofluorescent staining)” value at TrkB [1] is on record as “had no effect”.

With `CN[C@@H](C(=O)N(C)C)[C@@H](O)c1ccc(O)c(O)c1` [Compound I-15], the “TrkB activation in primary cortical neurons” value at TrkB [3] is “display activity”.

As for `O=C(O)CN(CCN(CC(=O)O)CC(=O)O)CC(=O)O` [EDTA], at TrkB [2] (1 mM EDTA, Zn 100 μM, 15 minutes), the “Effect of EDTA on stimulatory activity of TrkB activation by Zn” value is reported as “blocked”.

On to `NCCc1ccc(O)c(O)c1` [dopamine], for which, at TrkB [6], the “TrkB activation in NET -/- neurons” value was “notable TrkB activation”.

As to `NCCc1c[nH]c2ccc(O)cc12` [serotonin], on TrkB [1], the “TrkB tyrosine phosphorylation (immunofluorescent staining)” value is listed as “did not”. The “Activation of TrkB in BDNF-null cortical neurons” value at TrkB [7] is recorded as “had no effect”. Moreover, the “TrkB phosphorylation provoked by the substance” value at TrkB F616A is “had no effect”. Moreover, the “TrkB activation (immunoblotting of neuronal lysates)” value at TrkB [5] was “not activated”.

As to `N[C@@H](Cc1ccc(O)c(O)c1)C(=O)O` [L-DOPA, L-dihydroxyphenylalanine], the “TrkB activation in BDNF -/- cortex” value in the test with TrkB [8] is listed as “strongly triggered TrkB activation”. Further, the “TrkB tyrosine phosphorylation/activation in mice” value at TrkB [9] is listed as “provoked evident TrkB activation”. Moreover, the “TrkB activation in primary cultured neurons” value on TrkB [5] is “rapidly induced TrkB activation”.
